Measured values published in the NIST ThermoML archive (doi:10.1021/je900311v).

Tests used:
[1] = excess molar enthalpy (molar enthalpy of mixing); xn = mol fraction of the nth substance listed; settings: 298.15 K, 101 kPa, Liquid, Calvet calorimetry
[2] = 298.15 K; 101.33 kPa; Liquid

CCCCCCC(C)=O [2-octanone] + CCCCCCCCCCCC
[1]
Settings | excess molar enthalpy [kcal/mol]
x1 = 0.035 | 0.0456
x1 = 0.0677 | 0.0821
x1 = 0.0982 | 0.111
x1 = 0.1267 | 0.136
x1 = 0.1564 | 0.159
x1 = 0.1841 | 0.177
x1 = 0.2101 | 0.193
x1 = 0.2345 | 0.205
x1 = 0.2613 | 0.217
x1 = 0.2862 | 0.226
x1 = 0.3096 | 0.234
x1 = 0.3314 | 0.24
x1 = 0.3519 | 0.245
x1 = 0.3712 | 0.248
x1 = 0.3931 | 0.252
x1 = 0.4135 | 0.254
x1 = 0.4325 | 0.255
x1 = 0.4499 | 0.255
x1 = 0.4504 | 0.256
x1 = 0.4596 | 0.256
x1 = 0.4698 | 0.256
x1 = 0.4804 | 0.256
x1 = 0.4915 | 0.256
x1 = 0.5031 | 0.255
x1 = 0.5138 | 0.255
x1 = 0.525 | 0.253
x1 = 0.5366 | 0.252
x1 = 0.5488 | 0.251
x1 = 0.5615 | 0.249
x1 = 0.5749 | 0.246
x1 = 0.5866 | 0.244
x1 = 0.5986 | 0.241
x1 = 0.6133 | 0.238
x1 = 0.6244 | 0.235
x1 = 0.6381 | 0.231
x1 = 0.6525 | 0.227
x1 = 0.6658 | 0.222
x1 = 0.6795 | 0.217
x1 = 0.6938 | 0.212
x1 = 0.7072 | 0.206
x1 = 0.721 | 0.2
x1 = 0.7355 | 0.193
x1 = 0.7505 | 0.186
x1 = 0.7661 | 0.177
x1 = 0.7808 | 0.17
x1 = 0.7961 | 0.161
x1 = 0.812 | 0.151
x1 = 0.8265 | 0.142
x1 = 0.8414 | 0.133
x1 = 0.857 | 0.122
x1 = 0.873 | 0.11
x1 = 0.8877 | 0.0994
x1 = 0.9032 | 0.0876
x1 = 0.9191 | 0.0745
x1 = 0.9356 | 0.0608
x1 = 0.9509 | 0.047
x1 = 0.9667 | 0.0326
x1 = 0.9831 | 0.0167

CCCCCC(=O)CC [3-octanone] + CCCCCCCCCCCC
[1]
Settings | excess molar enthalpy [kcal/mol]
x1 = 0.0352 | 0.0408
x1 = 0.0679 | 0.0749
x1 = 0.0985 | 0.102
x1 = 0.1272 | 0.126
x1 = 0.1541 | 0.145
x1 = 0.1794 | 0.162
x1 = 0.2078 | 0.178
x1 = 0.2344 | 0.192
x1 = 0.2592 | 0.203
x1 = 0.2824 | 0.212
x1 = 0.3042 | 0.22
x1 = 0.3248 | 0.226
x1 = 0.3477 | 0.232
x1 = 0.3691 | 0.236
x1 = 0.3892 | 0.239
x1 = 0.408 | 0.242
x1 = 0.4257 | 0.243
x1 = 0.445 | 0.244
x1 = 0.4631 | 0.245
x1 = 0.48 | 0.245
x1 = 0.4959 | 0.245
x1 = 0.5109 | 0.244
x1 = 0.525 | 0.243
x1 = 0.5383 | 0.242
x1 = 0.5524 | 0.24
x1 = 0.5657 | 0.237
x1 = 0.5782 | 0.235
x1 = 0.5798 | 0.233
x1 = 0.59 | 0.233
x1 = 0.5925 | 0.231
x1 = 0.6057 | 0.229
x1 = 0.6194 | 0.226
x1 = 0.632 | 0.222
x1 = 0.6451 | 0.219
x1 = 0.6588 | 0.215
x1 = 0.673 | 0.21
x1 = 0.6855 | 0.207
x1 = 0.6985 | 0.201
x1 = 0.712 | 0.196
x1 = 0.726 | 0.19
x1 = 0.7405 | 0.183
x1 = 0.7557 | 0.176
x1 = 0.7693 | 0.17
x1 = 0.7833 | 0.162
x1 = 0.798 | 0.154
x1 = 0.8133 | 0.146
x1 = 0.8289 | 0.136
x1 = 0.8453 | 0.126
x1 = 0.8592 | 0.116
x1 = 0.8735 | 0.106
x1 = 0.8883 | 0.0958
x1 = 0.9036 | 0.0842
x1 = 0.9194 | 0.0717
x1 = 0.9358 | 0.0585
x1 = 0.9511 | 0.0454
x1 = 0.9668 | 0.0313
x1 = 0.9831 | 0.0161

CCCCCC(=O)CC [3-octanone] + CCCCCCCCCCCCCC
[1]
Settings | excess molar enthalpy [kcal/mol]
x1 = 0.0384 | 0.0466
x1 = 0.074 | 0.0845
x1 = 0.107 | 0.116
x1 = 0.1377 | 0.141
x1 = 0.1664 | 0.163
x1 = 0.1933 | 0.181
x1 = 0.2233 | 0.198
x1 = 0.2512 | 0.213
x1 = 0.2771 | 0.224
x1 = 0.3013 | 0.233
x1 = 0.324 | 0.241
x1 = 0.3452 | 0.247
x1 = 0.3687 | 0.252
x1 = 0.3907 | 0.257
x1 = 0.4111 | 0.26
x1 = 0.4303 | 0.262
x1 = 0.4482 | 0.263
x1 = 0.465 | 0.264
x1 = 0.4833 | 0.264
x1 = 0.5005 | 0.264
x1 = 0.5166 | 0.263
x1 = 0.5316 | 0.261
x1 = 0.5458 | 0.259
x1 = 0.5618 | 0.257
x1 = 0.5762 | 0.254
x1 = 0.5904 | 0.251
x1 = 0.6033 | 0.248
x1 = 0.6131 | 0.245
x1 = 0.6255 | 0.242
x1 = 0.6385 | 0.239
x1 = 0.6519 | 0.235
x1 = 0.666 | 0.23
x1 = 0.6781 | 0.226
x1 = 0.6906 | 0.221
x1 = 0.7037 | 0.216
x1 = 0.7172 | 0.21
x1 = 0.7313 | 0.204
x1 = 0.7459 | 0.197
x1 = 0.7586 | 0.19
x1 = 0.7716 | 0.183
x1 = 0.7852 | 0.176
x1 = 0.7992 | 0.167
x1 = 0.8138 | 0.158
x1 = 0.8288 | 0.149
x1 = 0.8419 | 0.14
x1 = 0.8555 | 0.13
x1 = 0.8694 | 0.12
x1 = 0.8838 | 0.109
x1 = 0.8988 | 0.0967
x1 = 0.9142 | 0.0835
x1 = 0.9552 | 0.0458
x1 = 0.9696 | 0.0313
x1 = 0.9846 | 0.0167

CCCCCCCCCCCCCCCC [hexadecane]
Settings | mass density [kg/m3]
[2] | 770.31
